Source: PubChem BioAssay (NCI)
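All cell lines were grown in 96-well plates and treated with compound for 48 hours. TGI marks complete inhibition of growth.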

Assays:
Assay in all cases: NCI-60 cell line screen, 48 h
HOP-92 NSCLC = test system: HOP-92 NSCLC
CCRF-CEM leukemia = test system: CCRF-CEM leukemia
786-0 renal = test system: 786-0 renal
DLD-1 colon = test system: DLD-1 colon
SF-268 CNS = test system: SF-268 CNS
SF-295 CNS = test system: SF-295 CNS
EKVX NSCLC = test system: EKVX NSCLC
OVCAR-3 ovarian = test system: OVCAR-3 ovarian
HOP-18 NSCLC = test system: HOP-18 NSCLC
SNB-75 CNS = test system: SNB-75 CNS
NCI-H522 lung = test system: NCI-H522 lung
U251 CNS = test system: U251 CNS
HCT-116 colon = test system: HCT-116 colon
UO-31 renal = test system: UO-31 renal
TK-10 renal = test system: TK-10 renal
A549 NSCLC = test system: A549 NSCLC
OVCAR-5 ovarian = test system: OVCAR-5 ovarian
SNB-19 CNS = test system: SNB-19 CNS
SK-MEL-5 melanoma = test system: SK-MEL-5 melanoma
M19-MEL melanoma = test system: M19-MEL melanoma
SN12C renal = test system: SN12C renal
IGROV1 ovarian = test system: IGROV1 ovarian
OVCAR-4 ovarian = test system: OVCAR-4 ovarian
SK-MEL-28 melanoma = test system: SK-MEL-28 melanoma
KM20L2 colon = test system: KM20L2 colon
M14 melanoma = test system: M14 melanoma
COLO 205 colon = test system: COLO 205 colon
RXF 393 renal = test system: RXF 393 renal
RPMI-8226 leukemia = test system: RPMI-8226 leukemia
SK-OV-3 ovarian = test system: SK-OV-3 ovarian
NCI-H226 lung = test system: NCI-H226 lung
HOP-62 NSCLC = test system: HOP-62 NSCLC
LXFL 529 NSCLC = test system: LXFL 529 NSCLC
KM12 colon = test system: KM12 colon
DMS 273 small cell lung = test system: DMS 273 small cell lung
UACC-62 melanoma = test system: UACC-62 melanoma
A498 renal = test system: A498 renal
UACC-257 melanoma = test system: UACC-257 melanoma
MALME-3M melanoma = test system: MALME-3M melanoma
K-562 leukemia = test system: K-562 leukemia
CAKI-1 renal = test system: CAKI-1 renal
ACHN renal = test system: ACHN renal
MOLT-4 leukemia = test system: MOLT-4 leukemia
LOX IMVI melanoma = test system: LOX IMVI melanoma
HL-60(TB) leukemia = test system: HL-60(TB) leukemia
SR leukemia = test system: SR leukemia
NCI-H23 lung = test system: NCI-H23 lung
NCI-H460 lung = test system: NCI-H460 lung
SF-539 CNS = test system: SF-539 CNS
OVCAR-8 ovarian = test system: OVCAR-8 ovarian
HT29 colon = test system: HT29 colon
SK-MEL-2 melanoma = test system: SK-MEL-2 melanoma
SNB-78 CNS = test system: SNB-78 CNS
HCT-15 colon = test system: HCT-15 colon
HCC-2998 colon = test system: HCC-2998 colon
XF 498 CNS = test system: XF 498 CNS
SW-620 colon = test system: SW-620 colon
DMS 114 small cell lung = test system: DMS 114 small cell lung

Measured: TGI

CCOC(=O)C1=C(OC(OCC)C(C)[Se]c2ccccc2)CCC1 (stereo not given)
37.5 µM: OVCAR-4 ovarian
20.4 µM: LOX IMVI melanoma
33.6 µM: HCT-15 colon
51.7 µM: HOP-18 NSCLC
47.1 µM: UO-31 renal
22.4 µM: DMS 273 small cell lung
32 µM: OVCAR-3 ovarian
74.2 µM: KM20L2 colon
79.3 µM: SF-295 CNS
62.7 µM: SK-MEL-28 melanoma
39.9 µM: SK-MEL-5 melanoma | SF-539 CNS
77.6 µM: HT29 colon
30.2 µM: RXF 393 renal
82.2 µM: COLO 205 colon
63.2 µM: M14 melanoma
28 µM: SR leukemia
21.2 µM: HL-60(TB) leukemia
60 µM: NCI-H460 lung
25.1 µM: 786-0 renal
34.4 µM: XF 498 CNS
59.1 µM: EKVX NSCLC
89.5 µM: MALME-3M melanoma
48.3 µM: HOP-92 NSCLC
50.4 µM: NCI-H226 lung
49.7 µM: CCRF-CEM leukemia
26.9 µM: NCI-H522 lung
40.5 µM: DLD-1 colon
81 µM: IGROV1 ovarian
73.6 µM: SNB-75 CNS
38.9 µM: M19-MEL melanoma
37.4 µM: LXFL 529 NSCLC
27.9 µM: NCI-H23 lung
36.5 µM: SN12C renal | RPMI-8226 leukemia
38.8 µM: HCT-116 colon
30.1 µM: OVCAR-8 ovarian
68.4 µM: ACHN renal
58.5 µM: MOLT-4 leukemia
43.6 µM: UACC-62 melanoma
32.3 µM: SF-268 CNS
20.1 µM: U251 CNS
not listed: SW-620 colon | DMS 114 small cell lung
> 100 µM: all other assays above

COc1ccc(Nc2nc3c(N)cc(C(F)(F)F)cc3nc2-c2ccccc2)cc1OC
95.3 µM: UO-31 renal
63.9 µM: UACC-257 melanoma
66.1 µM: A549 NSCLC
43.8 µM: HOP-18 NSCLC
17.5 µM: SNB-75 CNS
47.3 µM: TK-10 renal
62.3 µM: SK-MEL-5 melanoma
46.4 µM: LXFL 529 NSCLC
44.6 µM: UACC-62 melanoma
38.5 µM: MALME-3M melanoma
28.9 µM: 786-0 renal
59.7 µM: EKVX NSCLC
69.1 µM: SK-MEL-2 melanoma
57.8 µM: HOP-62 NSCLC
47.1 µM: SN12C renal
44.8 µM: SF-295 CNS
57.9 µM: NCI-H226 lung
43.9 µM: NCI-H522 lung
50.2 µM: RXF 393 renal
33.1 µM: XF 498 CNS
75.7 µM: SNB-78 CNS
89.6 µM: HCC-2998 colon
27.5 µM: ACHN renal
70 µM: A498 renal
53.8 µM: SNB-19 CNS
69.7 µM: IGROV1 ovarian
60.4 µM: M19-MEL melanoma
33.8 µM: OVCAR-4 ovarian
42.8 µM: U251 CNS
42.5 µM: CAKI-1 renal
46.3 µM: HOP-92 NSCLC
71.1 µM: SF-268 CNS
28.6 µM: SK-OV-3 ovarian
39.6 µM: SF-539 CNS
42.9 µM: OVCAR-3 ovarian
43.2 µM: OVCAR-8 ovarian
not listed: RPMI-8226 leukemia | HT29 colon | DMS 114 small cell lung
> 100 µM: all other assays above

Oc1ccc(-c2nc(=S)[nH][nH]2)cc1
not listed: RXF 393 renal | LOX IMVI melanoma | HCC-2998 colon
> 100 µM: all other assays above

CCc1cccc(C)c1NC(=O)CC(=O)NNC(N)=S
not listed: HCT-116 colon | M19-MEL melanoma | IGROV1 ovarian | UACC-62 melanoma | A498 renal | SR leukemia | SF-539 CNS | SK-MEL-2 melanoma
> 100 µM: all other assays above

CCCCCCCCCCn1cccc1/C=C/c1ccc(/C=C/c2cccn2CCCCCCCCCC)cc1
not listed: MOLT-4 leukemia | SR leukemia | SK-MEL-2 melanoma | HCT-15 colon
> 100 µM: all other assays above
